Measurements: PubChem BioAssay (NCI)
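How tested: cells in 96-well plates exposed to compound for 48 hours at five concentrations. Here, GI50 denotes the concentration required for 50% inhibition of growth. TGI is the concentration that stops growth completely.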

How the values were obtained:
Experiment in all cases: DTP human tumour cell line panel, 48 h
[1] = system: 786-0 renal
[2] = system: A498 renal
[3] = system: A549 NSCLC
[4] = system: ACHN renal
[5] = system: BT-549 breast
[6] = system: CAKI-1 renal
[7] = system: CCRF-CEM leukemia
[8] = system: COLO 205 colon
[9] = system: DU-145 prostate
[10] = system: EKVX NSCLC
[11] = system: HCC-2998 colon
[12] = system: HCT-116 colon
[13] = system: HCT-15 colon
[14] = system: HL-60(TB) leukemia
[15] = system: HOP-62 NSCLC
[16] = system: HOP-92 NSCLC
[17] = system: HS 578T breast
[18] = system: HT29 colon
[19] = system: IGROV1 ovarian
[20] = system: K-562 leukemia
[21] = system: KM12 colon
[22] = system: LOX IMVI melanoma
[23] = system: M14 melanoma
[24] = system: MALME-3M melanoma
[25] = system: MCF7 breast
[26] = system: MDA-MB-231 breast
[27] = system: MDA-MB-435
[28] = system: MDA-MB-468 breast
[29] = system: MOLT-4 leukemia
[30] = system: NCI-H226 lung
[31] = system: NCI-H23 lung
[32] = system: NCI-H460 lung
[33] = system: NCI-H522 lung
[34] = system: NCI/ADR-RES ovarian
[35] = system: OVCAR-3 ovarian
[36] = system: OVCAR-4 ovarian
[37] = system: OVCAR-5 ovarian
[38] = system: OVCAR-8 ovarian
[39] = system: PC-3 prostate
[40] = system: RPMI-8226 leukemia
[41] = system: RXF 393 renal
[42] = system: SF-268 CNS
[43] = system: SF-295 CNS
[44] = system: SF-539 CNS
[45] = system: SK-MEL-2 melanoma
[46] = system: SK-MEL-28 melanoma
[47] = system: SK-MEL-5 melanoma
[48] = system: SK-OV-3 ovarian
[49] = system: SN12C renal
[50] = system: SNB-19 CNS
[51] = system: SNB-75 CNS
[52] = system: SR leukemia
[53] = system: SW-620 colon
[54] = system: T-47D breast
[55] = system: TK-10 renal
[56] = system: U251 CNS
[57] = system: UACC-257 melanoma
[58] = system: UACC-62 melanoma
[59] = system: UO-31 renal

Question: For `CC12CCC3(CCC(=O)NCCCNc4ccnc5cc(Cl)ccc45)[C@@](C)(OO[C@]3(C)O1)O2`, which GI50 [1] is on record?
Answer: 1.79 µM

Question: And the TGI [1]?
Answer: 8.62 µM

Question: What about the GI50 [2] of the same molecule?
Answer: 3.86 µM

Question: What about the TGI [2] of the same molecule?
Answer: 22.7 µM

Question: What about the GI50 [3] of the same molecule?
Answer: 2.99 µM

Question: What about the TGI [3] of the same molecule?
Answer: > 25.5 µM

Question: What about the GI50 [4] of the same molecule?
Answer: 1.16 µM

Question: And the TGI [4]?
Answer: 6.73 µM

Question: And the GI50 [5]?
Answer: 5.28 µM

Question: And the TGI [5]?
Answer: 15.5 µM

Question: What about the GI50 [6] of the same molecule?
Answer: 0.951 µM

Question: And the TGI [6]?
Answer: 4.75 µM

Question: What about the GI50 [7] of the same molecule?
Answer: 3.85 µM

Question: What about the TGI [7] of the same molecule?
Answer: 11 µM

Question: And the GI50 [8]?
Answer: 4.99 µM

Question: And the TGI [8]?
Answer: > 25.5 µM

Question: What about the GI50 [9] of the same molecule?
Answer: 3.42 µM

Question: What about the TGI [9] of the same molecule?
Answer: 11.9 µM

Question: And the GI50 [10]?
Answer: 1.99 µM

Question: And the TGI [10]?
Answer: 19.4 µM

Question: What about the GI50 [11] of the same molecule?
Answer: 8.01 µM

Question: What about the TGI [11] of the same molecule?
Answer: > 25.5 µM

Question: What about the GI50 [12] of the same molecule?
Answer: 3.71 µM

Question: What about the TGI [12] of the same molecule?
Answer: 13.3 µM

Question: And the GI50 [13]?
Answer: 7.9 µM

Question: What about the TGI [13] of the same molecule?
Answer: > 25.5 µM

Question: And the GI50 [14]?
Answer: 4.94 µM

Question: What about the TGI [14] of the same molecule?
Answer: 11.7 µM

Question: And the GI50 [15]?
Answer: 1.41 µM

Question: What about the TGI [15] of the same molecule?
Answer: 6.48 µM

Question: And the GI50 [16]?
Answer: 1.47 µM

Question: What about the TGI [16] of the same molecule?
Answer: 12 µM

Question: What about the GI50 [17] of the same molecule?
Answer: 3 µM

Question: And the TGI [17]?
Answer: 14.1 µM

Question: What about the GI50 [18] of the same molecule?
Answer: 6.19 µM

Question: And the TGI [18]?
Answer: 23.3 µM

Question: And the GI50 [19]?
Answer: 2.8 µM

Question: And the TGI [19]?
Answer: 8.22 µM

Question: And the GI50 [20]?
Answer: 5.55 µM

Question: What about the TGI [20] of the same molecule?
Answer: > 25.5 µM

Question: And the GI50 [21]?
Answer: 4.5 µM

Question: What about the TGI [21] of the same molecule?
Answer: 24.2 µM

Question: And the GI50 [22]?
Answer: 1.34 µM

Question: What about the TGI [22] of the same molecule?
Answer: 4.71 µM

Question: What about the GI50 [23] of the same molecule?
Answer: 4.36 µM

Question: What about the TGI [23] of the same molecule?
Answer: 17.4 µM

Question: What about the GI50 [24] of the same molecule?
Answer: 4.73 µM

Question: What about the TGI [24] of the same molecule?
Answer: 19.6 µM

Question: What about the GI50 [25] of the same molecule?
Answer: 1.68 µM

Question: And the TGI [25]?
Answer: > 25.5 µM

Question: What about the GI50 [26] of the same molecule?
Answer: 1.4 µM

Question: What about the TGI [26] of the same molecule?
Answer: 9.92 µM

Question: And the GI50 [27]?
Answer: 4.89 µM

Question: And the TGI [27]?
Answer: > 25.5 µM

Question: And the GI50 [28]?
Answer: 4.05 µM

Question: What about the TGI [28] of the same molecule?
Answer: 9.17 µM

Question: And the GI50 [29]?
Answer: 4.68 µM

Question: And the TGI [29]?
Answer: 14.3 µM

Question: What about the GI50 [30] of the same molecule?
Answer: 1.72 µM

Question: What about the TGI [30] of the same molecule?
Answer: 15 µM

Question: And the GI50 [31]?
Answer: 3.77 µM

Question: What about the TGI [31] of the same molecule?
Answer: 11.8 µM

Question: What about the GI50 [32] of the same molecule?
Answer: 2.49 µM

Question: And the TGI [32]?
Answer: 11.4 µM

Question: And the GI50 [33]?
Answer: 3.02 µM

Question: And the TGI [33]?
Answer: 6.79 µM

Question: What about the GI50 [34] of the same molecule?
Answer: 5.84 µM

Question: What about the TGI [34] of the same molecule?
Answer: 19.4 µM

Question: What about the GI50 [35] of the same molecule?
Answer: 3.61 µM

Question: And the TGI [35]?
Answer: 10.8 µM

Question: What about the GI50 [36] of the same molecule?
Answer: 4.89 µM

Question: And the TGI [36]?
Answer: > 25.5 µM

Question: And the GI50 [37]?
Answer: 4.2 µM

Question: What about the TGI [37] of the same molecule?
Answer: 16 µM

Question: What about the GI50 [38] of the same molecule?
Answer: 4.92 µM

Question: And the TGI [38]?
Answer: 12.7 µM

Question: What about the GI50 [39] of the same molecule?
Answer: 6.72 µM

Question: What about the TGI [39] of the same molecule?
Answer: > 25.5 µM

Question: And the GI50 [40]?
Answer: 5.86 µM

Question: And the TGI [40]?
Answer: > 25.5 µM

Question: What about the GI50 [41] of the same molecule?
Answer: 0.646 µM

Question: What about the TGI [41] of the same molecule?
Answer: 2.74 µM

Question: What about the GI50 [42] of the same molecule?
Answer: 2.09 µM

Question: What about the TGI [42] of the same molecule?
Answer: 8.55 µM

Question: And the GI50 [43]?
Answer: 4.5 µM

Question: What about the TGI [43] of the same molecule?
Answer: 15 µM

Question: And the GI50 [44]?
Answer: 3.38 µM

Question: What about the TGI [44] of the same molecule?
Answer: 7.38 µM

Question: And the GI50 [45]?
Answer: 8.21 µM

Question: And the TGI [45]?
Answer: > 25.5 µM

Question: What about the GI50 [46] of the same molecule?
Answer: 8.78 µM

Question: What about the TGI [46] of the same molecule?
Answer: > 25.5 µM

Question: And the GI50 [47]?
Answer: 4.36 µM

Question: What about the TGI [47] of the same molecule?
Answer: 17.2 µM

Question: What about the GI50 [48] of the same molecule?
Answer: 5.46 µM

Question: And the TGI [48]?
Answer: 16.1 µM

Question: What about the GI50 [49] of the same molecule?
Answer: 2.14 µM

Question: What about the TGI [49] of the same molecule?
Answer: 12.2 µM

Question: What about the GI50 [50] of the same molecule?
Answer: 7.12 µM

Question: And the TGI [50]?
Answer: > 25.5 µM

Question: What about the GI50 [51] of the same molecule?
Answer: 0.618 µM

Question: And the TGI [51]?
Answer: 3.77 µM

Question: And the GI50 [52]?
Answer: 3.66 µM

Question: And the TGI [52]?
Answer: 16.3 µM

Question: What about the GI50 [53] of the same molecule?
Answer: 3.62 µM

Question: And the TGI [53]?
Answer: > 25.5 µM

Question: And the GI50 [54]?
Answer: 5.99 µM

Question: And the TGI [54]?
Answer: > 25.5 µM

Question: And the GI50 [55]?
Answer: 1.23 µM

Question: And the TGI [55]?
Answer: 11.3 µM

Question: What about the GI50 [56] of the same molecule?
Answer: 4.45 µM

Question: What about the TGI [56] of the same molecule?
Answer: 11.6 µM

Question: What about the GI50 [57] of the same molecule?
Answer: 8.99 µM

Question: And the TGI [57]?
Answer: > 25.5 µM

Question: What about the GI50 [58] of the same molecule?
Answer: 5.58 µM

Question: What about the TGI [58] of the same molecule?
Answer: > 25.5 µM

Question: And the GI50 [59]?
Answer: 1.43 µM

Question: And the TGI [59]?
Answer: 6.78 µM
